# From patent publication US20260274853A1, “BIFUNCTIONAL COMPOUNDS CONTAINING PYRIMIDINE DERIVATIVES FOR DEGRADING CYCLIN-DEPENDENT KINASE 2 VIA UBIQUITIN PROTEASOME PATHWAY” (NIKANG THERAPEUTICS, INC., priority 2022, published 2026)
# What was measured:
# CDK2 [1] = biological target: T1, CDK2 (Homo sapiens, UniProt P24941); assay: Inhibition of CDK2: phospho-Rb (S807/811) HTRF measurement in OVCAR3 cells; type: cell-based; settings: 24 h compound treatment, read-out: pRb (nM), IC50 in pRB(S807/811) assay
# T1 construct: High-Throughput Measurement of Cellular Endogenous CDK2; endogenous in cells; host or cells: OVCAR3
# CDK2 [2] = biological target: T1, CDK2; assay: CDK2 HTRF assay: cellular endogenous CDK2 level in OVCAR3 cells; type: cell-based; settings: 24 hours compound treatment, read-out: DC50 (half maximal degradation concentration of CDK2)
# Method in brief: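 Endogenous CDK2 degradation in OVCAR3 cells after 24 h compound treatment at 0.3–10,000 nM. Lysates assayed with an HTRF total-CDK2 two-antibody kit, TR-FRET 665/620 ratio normalized to DMSO. DC50 from four-parameter logistic fit, reported as potency bins.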
IC50 (CDK2 [1]) [nM],DC50 (CDK2 [2]) [nM],Compound
< 100,< 100,"CC(Cc1cccc(S(=O)(=O)N2CCC(Nc3ncc(C(F)(F)F)c(-c4cnn(CC(F)(F)F)c4)n3)CC2)c1)N1CCC(c2ccc3c(N4CCC(=O)NC4=O)nn(C)c3c2)CC1 (stereo not shown) [Example 93, 1-(1-methyl-6-(1-(1-(3-((4-((4-(1-(2,2,2-trifluoroethyl)-1H-pyrazol-4-yl)-5-(trifluoromethyl)pyrimidin-2-yl)amino)-piperidin-1-yl)sulfonyl)-phenyl)propan-2-yl)piperidin-4-yl)-1H-indazol-3-yl)dihydropyrimidine-2,4(1H,3H)-dione]"
< 100,< 100,"CC(Cc1cccc(S(=O)(=O)N2CCC(Nc3ncc(C(F)(F)F)c(-c4cnn(-c5ccccc5F)c4)n3)CC2)c1)N1CCC(c2ccc3c(N4CCC(=O)NC4=O)nn(C)c3c2)CC1 (stereo not shown) [Example 96, 1-(6-(1-(1-(3-((4-((4-(1-(2-fluoro-phenyl)-1H-pyrazol-4-yl)-5-(trifluoro-methyl)pyrimidin-2-yl)amino)-piperidin-1-yl)sulfonyl)phenyl)propan-2-yl)-piperidin-4-yl)-1-methyl-1H-indazol-3-yl)dihydropyrimidine-2,4(1H,3H)-dione]"
